Results on 9 compounds are retold here after US8952042B2, “FXR (NR1H4) binding and activity modulating compounds” (Phenex Pharmaceuticals AG, priority 2009, dated 2015).

In series [1] the target is T1, FXR ligand binding domain (Homo sapiens, UniProt Q96RI1).
T1 construct: expressed in transfected cells; host or cells: HEK293 cells (DSMZ), transient transfection of pCMV-BD-FXR-LBD
T1 sequence (Q96RI1 187-472 isoform Q96RI1-2): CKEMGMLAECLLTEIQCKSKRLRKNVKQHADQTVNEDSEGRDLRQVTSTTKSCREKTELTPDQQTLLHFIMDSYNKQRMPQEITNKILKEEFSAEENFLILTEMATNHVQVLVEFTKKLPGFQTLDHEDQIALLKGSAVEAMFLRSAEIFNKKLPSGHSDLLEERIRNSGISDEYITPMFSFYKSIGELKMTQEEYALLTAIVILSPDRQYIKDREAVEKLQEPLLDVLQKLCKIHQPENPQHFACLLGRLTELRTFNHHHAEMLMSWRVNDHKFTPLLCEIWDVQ
In words: Mammalian One Hybrid (M1H) Gal4 reporter assay in HEK293 cells. The class given is cell-based. Particulars: potency range. The method, then: Determination of a ligand mediated Gal4 promoter driven transactivation to quantify ligand binding mediated activation of FXR was performed as follows: The cDNA part encoding the FXR ligand binding domain was cloned into vector pCMV-BD (Stratagene) as a fusion to the yeast GAL4 DNA binding domain under the control of the CMV promoter. The amino acid boundaries of the ligand binding domain were amino acids 187-472 of Database entry NM_005123 (RefSeq). The plasmid pFR-Luc (Stratagene) was used as the reporter plasmid, containing a synthetic promoter with five tandem repeats of the yeast GAL4 binding sites, driving the expression of the Photinus pyralis (American firefly) luciferase gene as the reporter gene. In order to improve experimental accuracy the plasmid pRL-CMV (Promega) was cotransfected. pRL-CMV contains the constitutive CMV promoter, controlling the expression of the Renilla reniformis luciferase. All Gal4 reporter gene assays were done in HEK293 cells (obtained from DSMZ, Braunschweig, Germany) grown in MEM with L-Glutamine and Earle's BSS supplemented with 10% fetal bovine serum, 0.1 mM nonessential amino acids, 1 mM sodium pyruvate, and 100 units Penicillin/[…] per mL at 37° C. in 5% CO2. Medium and supplements were obtained from Invitrogen. For the assay, […] were plated per well in 96 well plates in 100 μL per well MEM without Phenol Red and L-Glutamine and with Earle's BSS supplemented with 10% charcoal/dextran treated FBS (HyClone, South Logan, Utah), 0.1 mM nonessential amino acids, 2 mM glutamine, 1 mM sodium pyruvate, and 100 units Penicillin/[…] per mL, incubated at 37° C. in 5% CO2. The following day the cells were >90% confluence. Medium was removed and cells were transiently transfected using 20 μL per well of a OptiMEM—polyethylene-imine-based transfection-reagent (OptiMEM, Invitrogen; Polyethyleneimine, Aldrich Cat No. 40, 827-7) including the three plasmids described above. MEM with the same composition as used for plating cells was added 2-4 h after addition of transfection mixture. Then compound stocks, prediluted in MEM were added (final vehicle concentration not exceeding 0.1%). Cells were incubated for additional 16 h before firefly and renilla luciferase activities were measured sequentially in the same cell extract using a Dual-Light-Luciferase-Assay system (Dyer et al., Anal. Biochem. 2000, 282, 158-161). All experiments were done in triplicates.

Series [2] has as its target T2, human FXR alpha ligand binding domain (Homo sapiens, UniProt Q96RI1).
T2 construct: made in house; host or cells: E. coli BL21(DE3), vector pDEST15
T2 sequence (Q96RI1 187-472 isoform Q96RI1-2): T1 sequence (Q96RI1 187-472 isoform Q96RI1-2)
In words: FRET activity assay (ligand mediated cofactor peptide interaction, LANCE). The class given is biochemical. The following applies: potency range. The method, then: Determination of a ligand mediated cofactor peptide interaction to quantify ligand binding to the nuclear receptor FXR was performed as follows: Preparation of human FXR alpha ligand binding domain: The human FXRalpha LBD was expressed in E. coli strain BL21(DE3) as an N-terminally GST tagged fusion protein. The DNA encoding the FXR ligand binding domain was cloned into vector pDEST15 (Invitrogen). Expression was under control of an IPTG inducible T7 promoter. The amino acid boundaries of the ligand binding domain were amino acids 187-472 of Database entry NM_005123 (RefSeq). Expression and purification of the FXR-LBD: An overnight preculture of a transformed E. coli strain was diluted 1:20 in LB-Ampicillin medium and grown at 30° C. to an optical density of OD600=0.4-0.6. Gene expression was then induced by addition of 0.5 mM IPTG. Cells were incubated an additional 6 h at 30° C., 180 rpm. Cells were collected by centrifugation (7000×g, 7 min, room temperature). Per liter of original cell culture, cells were resuspended in 10 mL lysis buffer (50 mM Glucose, 50 mM Tris pH 7.9, 1 mM EDTA and 4 mg/mL lysozyme) and left on ice for 30 min. Cells were then subjected to sonication and cell debris removed via centrifugation (22000×g, 30 min, 4° C.). Per 10 mL of supernatant 0.5 mL prewashed Glutathione 4B sepharose slurry (Qiagen) was added and the suspension kept slowly rotating for 1 h at 4° C. Glutathione 4B sepharose beads were pelleted by centrifugation (2000×g, 15 sec, 4° C.) and washed twice in wash buffer (25 mM Tris, 50 mM KCl, 4 mM MgCl2 and 1M NaCl). The pellet was resuspended in 3 mL elution buffer per liter of original culture (elution buffer: 20 mM Tris, 60 mM KCl, 5 mM MgCl2 and 80 mM glutathione added immediately prior to use as powder). The suspension was left rotating for 15 min at 4° C., the beads pelleted and eluted again with half the volume of elution buffer than the first time. The eluates were pooled and dialysed overnight in 20 mM Hepes buffer (pH 7.5) containing 60 mM KCl, 5 mM MgCl2 as well as 1 mM dithiothreitol and 10% (v/v) glycerol. The protein was analysed by SDS-Page.
The method measures the ability of putative ligands to modulate the interaction between the purified bacterial expressed FXR ligand binding domain (LBD) and a synthetic biotinylated peptide based on residues 676-700 of SRC-1 (LCD2, 676-700). […] The ligand binding domain (LBD) of FXR was expressed as fusion protein with GST in BL-21 cells using the vector pDEST15. Cells were lysed by sonication, and the fusion proteins purified over glutathione sepharose (Pharmacia) according to the manufacturers instructions. For screening of compounds for their influence on the FXR-peptide interaction, the Perkin Elmer LANCE technology was applied. This method relies on the binding dependent energy transfer from a donor to an acceptor fluorophor attached to the binding partner of interest. For ease of handling and reduction of background from compound fluorescence LANCE technology makes use of generic fluorophore labels and time resolved detection Assays were done in a final volume of 25 μL in a 384 well plate, in a Tris-based buffer (20 mM Tris-HCl pH 7.5; 60 mM KCl, 5 mM MgCl2; 35 ng/μL BSA), containing 20-60 ng/well recombinantly expressed FXR-LBD fused to GST, 200-600 nM N-terminally biotinylated peptide, representing SRC1 aminoacids 676-700, 200 ng/well Streptavidin-xIAPC conjugate (Prozyme) and 6-10 ng/well Eu W1024—antiGST (Perkin Elmer). DMSO content of the samples was kept at 1%. After generation of the assay mix and diluting the potentially FXR modulating ligands, the assay was equilibrated for one hour in the dark at room temperature in FIA-plates black 384 well (Greiner). The LANCE signal was detected by a Perkin Elmer VICTOR2V™ Multilabel Counter. The results were visualized by plotting the ratio between the emitted light at 665 and 615 nm.

Series [3] in a line: UV stability, irradiation at 366 nm on a DMSO thin film, LCMS. The class given is physicochemical. The following applies: 366 nm emission, 250 μM in DMSO thin film, FIG. 3m. The method, then: A different, more rapid experimental setup was used to investigate a broader set of compounds in comparison to GW4064. The substances were dissolved in reagent grade DMSO (99.5%, Karl Roth) at a concentration of 250 μM. DMSO solution was spread over a silica glass slide to a depth of approximately 2 mm and irradiated using a UV lamp set to 366 nm emission (Benda Instruments, Wiesloch Germany) using an 8 W tube set approximately 2.5 cm from the target materials. The solution was sampled prior to irradiation (T=0 min) and at various intervals thereafter. Stocks and samples were maintained in foil wrapped tubes out of direct light. Samples were injected (2 μL) directly onto a LCMS System for analysis without any further preparation.

Some results are limits rather than exact numbers.

With `CS(=O)(=O)NC(=O)c1ccc(C2CC2c2ccc(OCc3c(-c4c(Cl)cccc4Cl)noc3C3CC3)cc2Cl)cc1` (stereo not shown) [Example 14, 4-(2-(2-chloro-4-((5-cyclopropyl-3-(2,6-dichlorophenyl)isoxazol-4-yl)methoxy)phenyl)cyclopropyl)-N-(methylsulfonyl)benzamide], the EC50 in series [1] was 10 to 100 nM; in series [2] it was greater than 100 nM. The “photostability compared to GW4064” value in series [3] is reported as “higher photostability”.

In the case of `CC(C)n1nc(C(=O)O)cc1C1CC1c1ccc(OCc2c(-c3c(Cl)cccc3Cl)noc2C2CC2)cc1Cl` (stereo not shown) [Example 20, 5-(2-(2-chloro-4-((5-cyclopropyl-3-(2,6-dichlorophenyl)isoxazol-4-yl)methoxy)phenyl)cyclopropyl)-1-isopropyl-1H-pyrazole-3-carboxylic acid], the EC50 in series [1] and in series [2] was less than 10 nM in each case. In addition, the “photostability compared to GW4064” value in series [3] is “higher photostability”.

Turning to `Clc1cc(OCc2c(-c3c(Cl)cccc3Cl)noc2C2CC2)ccc1C1CC1c1ccc(-c2nnn[nH]2)cc1` (stereo not shown) [Example 16, 4-((4-(2-(4-(1H-tetrazol-5-yl)phenyl)cyclopropyl)-3-chlorophenoxy)methyl)-5-cyclopropyl-3-(2,6-dichlorophenyl)isoxazole], the EC50 in series [1] was 10 to 100 nM; in series [2], greater than 100 nM. Further, the “photostability compared to GW4064” value in series [3] was “higher photostability”.

Take `CC(C)c1onc(-c2c(Cl)cccc2Cl)c1COc1ccc(C2CC2c2cccc(C(=O)O)c2)c(Cl)c1` (stereo not shown) [Example 6, 3-(2-(2-chloro-4-((3-(2,6-dichlorophenyl)-5-isopropylisoxazol-4-yl)methoxy)phenyl)cyclopropyl)benzoic acid]: the EC50 in series [1] and in series [2] was 10 to 100 nM in each case.

On to `Cn1nc(C(=O)O)c2ccc(C3CC3c3ccc(OCc4c(-c5c(Cl)cccc5Cl)noc4C4CC4)cc3Cl)cc21` (racemic) [Example 13, 6-(2-(2-chloro-4-((5-cyclopropyl-3-(2,6-dichlorophenyl)isoxazol-4-yl)methoxy)phenyl)cyclopropyl)-1-methyl-1H-indazole-3-carboxylic acid], for which the EC50 in series [1] and in series [2] was 10 to 100 nM in each case.

For `CC(C)(O)c1onc(-c2c(Cl)cccc2Cl)c1COc1ccc(C2CC2c2ccc(C(=O)O)cc2)c(Cl)c1` (stereo not shown) [Example 17, 4-(2-(2-chloro-4-((3-(2,6-dichlorophenyl)-5-(2-hydroxypropan-2-yl)isoxazol-4-yl)methoxy)phenyl)cyclopropyl)benzoic acid], the EC50 in series [1] and in series [2] was greater than 100 nM throughout.

In the case of `CC(C)n1nc(C(=O)O)c2ccc(C3CC3c3ccc(OCc4c(-c5c(Cl)cccc5Cl)noc4C4CC4)cc3Cl)cc21` (stereo not shown) [Example 21, 6-(2-(2-chloro-4-((5-cyclopropyl-3-(2,6-dichlorophenyl)isoxazol-4-yl)methoxy)phenyl)cyclopropyl)-1-isopropyl-1H-indazole-3-carboxylic acid], the EC50 in series [1] and in series [2] was less than 10 nM in each case.

`O=C(O)c1ccc(C2CC2c2ccc(OCc3c(-c4c(Cl)cccc4Cl)noc3C3CC3)cc2Cl)cc1` (single isomer, unassigned; (-)) [Example 12c, (−)-4-(2-(2-chloro-4-((5-cyclopropyl-3-(2,6-dichlorophenyl)isoxazol-4-yl)methoxy)phenyl)cyclopropyl)benzoic acid]: the EC50 in series [1] and in series [2] was 10 to 100 nM in each case. In addition, in series [3], the “photostability compared to GW4064” value is “higher photostability”.

With `O=C(O)CNC(=O)c1ccc(C2CC2c2ccc(OCc3c(-c4c(Cl)cccc4Cl)noc3C3CC3)cc2Cl)cc1` (stereo not shown) [Example 28, 2-(4-(2-(2-chloro-4-((5-cyclopropyl-3-(2,6-dichlorophenyl)isoxazol-4-yl)methoxy)phenyl)cyclopropyl)benzamido)acetic acid], the EC50 in series [1] and in series [2] was greater than 100 nM in each case.
